Assays:
Type in all cases: in vivo
Amaranthus viridis [1] = assay: Test Example 4: herbicidal effect test by foliage treatment in upland field; details: upland field foliage treatment 7 days after sowing; 120 g/10a; evaluated 14 days after treatment
In short: (§1)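 Weeds were sown in alluvial field soil, 20 seeds per species, and sprayed 7 days after sowing with water-diluted emulsifiable concentrate at 100 liter per 10 are, equal to 120 g active ingredient per 10 are. Suppression was scored 14 days after treatment from dry weight relative to untreated plots.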

Echinochloa crus-galli [2] = assay: as above; details: upland field foliage treatment 7 days after sowing; 120 g/10a; evaluated 14 days after treatment
In short: as §1

crabgrass [3] = assay: as above; details: upland field foliage treatment 7 days after sowing; 120 g/10a; evaluated 14 days after treatment
In short: as §1

Chenopodium album [4] = assay: as above; details: upland field foliage treatment 7 days after sowing; 120 g/10a; evaluated 14 days after treatment
In short: as §1

Monochoria vaginalis [5] = assay: Test Example 1: herbicidal effect test by soil treatment in paddy field; details: 120 g/10a, paddy soil treatment just after sowing, 14 days after treatment
In short: (§2)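 Paddy soil in flooded pots (~3 cm water), sown with 30 seeds per species at 0–1 cm depth, kept in a greenhouse. Water-diluted emulsifiable concentrate applied dropwise right after sowing at 120 g active ingredient per 10 are. Weed suppression (%) from dry weight vs untreated pots after 14 days, two replicates.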

Scirpus juncoides [6] = assay: as above; details: 120 g/10a, paddy soil treatment just after sowing, 14 days after treatment
In short: as §2

Echinochloa crus-galli [7] = assay: as above; details: 120 g/10a, paddy soil treatment just after sowing, 14 days after treatment
In short: as §2

Lindernia pyxidaria [8] = assay: as above; details: 120 g/10a, paddy soil treatment just after sowing, 14 days after treatment
In short: as §2

Amaranthus viridis [9] = assay: Test Example 3: herbicidal effect test by soil treatment in upland field; details: upland field soil treatment 1 day after sowing; 120 g/10a; evaluated 14 days after treatment
In short: (§3)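 Pre-emergence soil spray applied one day after sowing 20 seeds of each weed into surface soil, dosed at 120 g a.i. per 10 are in 100 L water per 10 are. After 14 days, plants weighed dry; suppression (%) calculated against untreated plots, duplicate plots per concentration.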

Echinochloa crus-galli [10] = assay: as above; details: upland field soil treatment 1 day after sowing; 120 g/10a; evaluated 14 days after treatment
In short: as §3

crabgrass [11] = assay: as above; details: upland field soil treatment 1 day after sowing; 120 g/10a; evaluated 14 days after treatment
In short: as §3

Chenopodium album [12] = assay: as above; details: upland field soil treatment 1 day after sowing; 120 g/10a; evaluated 14 days after treatment
In short: as §3

Monochoria vaginalis [13] = assay: Test Example 2: herbicidal effect test by treatment during growing period in paddy field; details: treatment 7 days after sowing, 120 g/10a, evaluated 14 days after treatment
In short: (§4)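 Read-out is weed suppression (%), 1 − mean dry weight treated/untreated ×100, taken 14 days after treatment with duplicate plots. Treatment: water-diluted emulsifiable concentrate added dropwise to flooded paddy-soil pots 7 days post-sowing at 120 g active ingredient per 10 are.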

Scirpus juncoides [14] = assay: as above; details: treatment 7 days after sowing, 120 g/10a, evaluated 14 days after treatment
In short: as §4

Echinochloa crus-galli [15] = assay: as above; details: treatment 7 days after sowing, 120 g/10a, evaluated 14 days after treatment
In short: as §4

Lindernia pyxidaria [16] = assay: as above; details: treatment 7 days after sowing, 120 g/10a, evaluated 14 days after treatment
In short: as §4

`CC(C)N(C(=O)n1ncn(S(=O)(=O)C2CCCCC2)c1=O)c1ccc(F)cc1` [Compound 1-298] was tested, and the “herbicidal effect (weed suppression rate), Amaranthus viridis” value (“herbicidal effect … Amaranthus viridis” for short) (Amaranthus viridis [1]) was 90%, the “herbicidal effect (weed suppression rate), Echinochloa crus-galli” value (“herbicidal effect … Echinochloa crus-galli” for short) (Echinochloa crus-galli [2]) was 80% and the “herbicidal effect (weed suppression rate), Crabgrass” value (“herbicidal effect … Crabgrass” for short) (crabgrass [3]) was 90%. For the same compound, the “herbicidal effect (weed suppression rate), Chenopodium album” value (“herbicidal effect … Chenopodium album” below) (Chenopodium album [4]) was 80%, the “weed suppression rate, Monochoria vaginalis” value (Monochoria vaginalis [5]) was 80% and the “weed suppression rate, Scirpus juncoides” value (Scirpus juncoides [6]) was 90%. The “weed suppression rate, Echinochloa crus-galli” value (Echinochloa crus-galli [7]) was 90%, the “weed suppression rate, Lindemia pyxidaria” value (Lindernia pyxidaria [8]) was 90% and the “herbicidal effect … Amaranthus viridis” value (Amaranthus viridis [9]) was 90%. The “herbicidal effect … Echinochloa crus-galli” value (Echinochloa crus-galli [10]) was 80%, the “herbicidal effect … Crabgrass” value (crabgrass [11]) was 90% and the “herbicidal effect … Chenopodium album” value (Chenopodium album [12]) was 80%. For the same compound, the “weed suppression rate, Monochoria vaginalis” value (Monochoria vaginalis [13]) was 90%, the “weed suppression rate, Scirpus juncoides” value (Scirpus juncoides [14]) was 90% and the “weed suppression rate, Echinochloa crus-galli” value (Echinochloa crus-galli [15]) was 90%. For the same compound, the “weed suppression rate, Lindemia pyxidaria” value (Lindernia pyxidaria [16]) was 90%.

With `CC(C)N(C(=O)n1ncn(S(=O)(=O)C2CCCCC2)c1=O)c1cccc(F)c1F` [Compound 1-305] the “herbicidal effect … Amaranthus viridis” value (Amaranthus viridis [1]) was 80%, the “herbicidal effect … Echinochloa crus-galli” value (Echinochloa crus-galli [2]) was 90% and the “herbicidal effect … Crabgrass” value (crabgrass [3]) was 100%. The “herbicidal effect … Chenopodium album” value (Chenopodium album [4]) was 80%, the “weed suppression rate, Monochoria vaginalis” value (Monochoria vaginalis [5]) was 100% and the “weed suppression rate, Scirpus juncoides” value (Scirpus juncoides [6]) was 100%. For the same compound, the “weed suppression rate, Echinochloa crus-galli” value (Echinochloa crus-galli [7]) was 100%, the “weed suppression rate, Lindemia pyxidaria” value (Lindernia pyxidaria [8]) was 100% and the “herbicidal effect … Amaranthus viridis” value (Amaranthus viridis [9]) was 80%. The “herbicidal effect … Echinochloa crus-galli” value (Echinochloa crus-galli [10]) was 100%, the “herbicidal effect … Crabgrass” value (crabgrass [11]) was 100% and the “herbicidal effect … Chenopodium album” value (Chenopodium album [12]) was 80%. For the same compound, the “weed suppression rate, Monochoria vaginalis” value (Monochoria vaginalis [13]) was 100%, the “weed suppression rate, Scirpus juncoides” value (Scirpus juncoides [14]) was 100% and the “weed suppression rate, Echinochloa crus-galli” value (Echinochloa crus-galli [15]) was 100%. The “weed suppression rate, Lindemia pyxidaria” value (Lindernia pyxidaria [16]) was 100%.

For `CC(C)N(C(=O)n1ncn(S(=O)(=O)C2CCCCC2)c1=O)c1c(F)cccc1F` [Compound 1-308], the “herbicidal effect … Amaranthus viridis” value (Amaranthus viridis [1]) was 60%, the “herbicidal effect … Echinochloa crus-galli” value (Echinochloa crus-galli [2]) was 90% and the “herbicidal effect … Crabgrass” value (crabgrass [3]) was 90%. For the same compound, the “herbicidal effect … Chenopodium album” value (Chenopodium album [4]) was 40%, the “weed suppression rate, Monochoria vaginalis” value (Monochoria vaginalis [5]) was 80% and the “weed suppression rate, Scirpus juncoides” value (Scirpus juncoides [6]) was 100%. For the same compound, the “weed suppression rate, Echinochloa crus-galli” value (Echinochloa crus-galli [7]) was 100%, the “weed suppression rate, Lindemia pyxidaria” value (Lindernia pyxidaria [8]) was 100% and the “herbicidal effect … Amaranthus viridis” value (Amaranthus viridis [9]) was 40%. For the same compound, the “herbicidal effect … Echinochloa crus-galli” value (Echinochloa crus-galli [10]) was 90%, the “herbicidal effect … Crabgrass” value (crabgrass [11]) was 90% and the “herbicidal effect … Chenopodium album” value (Chenopodium album [12]) was 40%. For the same compound, the “weed suppression rate, Monochoria vaginalis” value (Monochoria vaginalis [13]) was 100%, the “weed suppression rate, Scirpus juncoides” value (Scirpus juncoides [14]) was 100% and the “weed suppression rate, Echinochloa crus-galli” value (Echinochloa crus-galli [15]) was 100%. For the same compound, the “weed suppression rate, Lindemia pyxidaria” value (Lindernia pyxidaria [16]) was 90%.

`CC(C)N(C(=O)n1ncn(S(=O)(=O)C2CCCCC2)c1=O)c1ccc(F)cc1Cl` [Compound 1-313] was tested, and the “herbicidal effect … Amaranthus viridis” value (Amaranthus viridis [1]) was 90%, the “herbicidal effect … Echinochloa crus-galli” value (Echinochloa crus-galli [2]) was 80% and the “herbicidal effect … Crabgrass” value (crabgrass [3]) was 90%. The “herbicidal effect … Chenopodium album” value (Chenopodium album [4]) was 80%, the “weed suppression rate, Monochoria vaginalis” value (Monochoria vaginalis [5]) was 80% and the “weed suppression rate, Scirpus juncoides” value (Scirpus juncoides [6]) was 90%. The “weed suppression rate, Echinochloa crus-galli” value (Echinochloa crus-galli [7]) was 90%, the “weed suppression rate, Lindemia pyxidaria” value (Lindernia pyxidaria [8]) was 80% and the “herbicidal effect … Amaranthus viridis” value (Amaranthus viridis [9]) was 90%. For the same compound, the “herbicidal effect … Echinochloa crus-galli” value (Echinochloa crus-galli [10]) was 80%, the “herbicidal effect … Crabgrass” value (crabgrass [11]) was 90% and the “herbicidal effect … Chenopodium album” value (Chenopodium album [12]) was 80%. For the same compound, the “weed suppression rate, Monochoria vaginalis” value (Monochoria vaginalis [13]) was 80%, the “weed suppression rate, Scirpus juncoides” value (Scirpus juncoides [14]) was 90% and the “weed suppression rate, Echinochloa crus-galli” value (Echinochloa crus-galli [15]) was 90%. For the same compound, the “weed suppression rate, Lindemia pyxidaria” value (Lindernia pyxidaria [16]) was 80%.

In the case of `CC(C)N(C(=O)n1ncn(S(=O)(=O)C2CCCCC2)c1=O)c1ccc(Cl)cc1Br` [Compound 1-318], the “herbicidal effect … Amaranthus viridis” value (Amaranthus viridis [1]) is reported as 60%, the “herbicidal effect … Echinochloa crus-galli” value (Echinochloa crus-galli [2]) is reported as 80% and the “herbicidal effect … Crabgrass” value (crabgrass [3]) is reported as 80%. For the same compound, the “herbicidal effect … Chenopodium album” value (Chenopodium album [4]) was 60%, the “weed suppression rate, Monochoria vaginalis” value (Monochoria vaginalis [5]) was 90% and the “weed suppression rate, Scirpus juncoides” value (Scirpus juncoides [6]) was 100%. The “weed suppression rate, Echinochloa crus-galli” value (Echinochloa crus-galli [7]) was 100%, the “weed suppression rate, Lindemia pyxidaria” value (Lindernia pyxidaria [8]) was 90% and the “herbicidal effect … Amaranthus viridis” value (Amaranthus viridis [9]) was 50%. The “herbicidal effect … Echinochloa crus-galli” value (Echinochloa crus-galli [10]) was 100%, the “herbicidal effect … Crabgrass” value (crabgrass [11]) was 100% and the “herbicidal effect … Chenopodium album” value (Chenopodium album [12]) was 50%. For the same compound, the “weed suppression rate, Monochoria vaginalis” value (Monochoria vaginalis [13]) was 80%, the “weed suppression rate, Scirpus juncoides” value (Scirpus juncoides [14]) was 80% and the “weed suppression rate, Echinochloa crus-galli” value (Echinochloa crus-galli [15]) was 100%. For the same compound, the “weed suppression rate, Lindemia pyxidaria” value (Lindernia pyxidaria [16]) was 80%.
